One assay relates to Na—K—Cl cotransport. Description: Na—K—Cl cotransport measured by 86Rb uptake in Jurkat cells. The class given is cell-based. The conditions noted are these: 1 μm isoproterenol, p<0.001. As to the method: Jurkat cells were centrifuged for 15 min at 300×g and resuspended in Dulbecco's modified Eagle's medium (DMEM; ionic composition: 1.8 mM CaCl2, 5.4 mM KCl, 0.8 mM MgSO4, 110 mM NaCl, 0.9 mM NaH2PO4, 0.25 µM Fe(NO3)3; GIBCO, Grand Island, N.Y.) with 10 mM N-2 hydroxyethylpiperazine-N′-2 ethanesulfonic acid (HEPES), pH 7.4 at a final concentration of 5-10×10^6 cells/ml. […] Assays were stopped by aliquoting 100 μl of the reaction mixture into chilled microcentrifuge tubes prefilled with 100 μl of 3 mM BaCl2 and 0.1 mM of ouabain solution layered over 100 μl of a 3:1 of mazola oil to n-butylphthalate mixture. Cells were rapidly sedimented through the oil interface (1 min at 15,000 g). Centrifuge tube tips containing the tip pellets were clipped in the vials and radioactivity was determined by scintillation spectroscopy (Beckman LS 6000).

Assay [1] deals with cAMP-dependent protein kinase (PKA). In words: cAMP-dependent protein kinase (PKA) activity in digitonin-permeabilized Jurkat cells. The class given is cell-based. Particulars: 5× rat C18 purified Reptimed or 1 μm isoproterenol, basal activity 9 +/−1. On the procedure: Cyclic AMP-dependent protein kinase (PKA) activity was assayed in digitonin-permeabilized cells. Jurkat cells were centrifuged at 300×g for 15 min and resuspended in Hanks' balanced salt solution without calcium and with 0.5 mM EDTA, 1 mM magnesium sulfate, and 1 mg/100 ml digitonin. Jurkat cells were incubated for 15 min at 4° C. and then washed twice as above in Hanks' solution without digitonin and finally resuspended at a final concentration of 10 to 20×10^6 cells/ml for assay. Cells were either untreated, treated with 5×rat C18 purified […], or with 1 μm isoproterenol, or with both 5[…] and 1 μm isoproterenol. PKA activity was assessed by the phosphorylation of the synthetic PKA substrate (Kemptide-Sigma Chemical Corporation, St. Louis, Mo.). Phosphorylated substrate was separated by adherence to phosphocellulose. After six washes in phosphoric acid, radioactivity on the phosphocellulose strips was assessed by scintillation spectroscopy.

The structures appear in SMILES notation.

As to `CC(C)NCC(O)c1ccc(O)c(O)c1` (centres unmarked) [isoproterenol], in the assay on Na—K—Cl cotransport, the “Na—K—Cl cotransport (86Rb uptake)” value is listed as 38 +/−8 % of control. The PKA activity entry in assay [1] is recorded as “significant increase”.
